# Reference: ChEMBL document CHEMBL1158332, “Saniculoside N from Sanicula europaea L” (J Nat Prod, 1997)
# Test system: Human immunodeficiency virus
# Experiment: Inhibition of HIV reverse transcriptase at 200 ug/ml
row,inhibition,Compound
1,0%,O=C(O)/C=C/c1ccc(O)c(O)c1
2,57.4%,O=C(/C=C/c1ccc(O)c(O)c1)O[C@H](Cc1ccc(O)c(O)c1)C(=O)O
3,20.1%,C/C=C(\C)C(=O)O[C@H]1[C@H](O)[C@@]2(CO)[C@H](CC1(C)C)C1=CC[C@@H]3[C@@]4(C)CC[C@H](O[C@@H]5O[C@H](C(=O)OCCC)[C@@H](O)[C@H](O[C@@H]6O[C@H](CO)[C@@H](O[C@@H]7OC[C@@H](O)[C@H](O)[C@H]7O)[C@H](O)[C@H]6O)[C@H]5O)C(C)(C)[C@@H]4CC[C@@]3(C)[C@]1(C)[C@@H](O)[C@H]2O
